Measured values: US10159640B2, “Prebiotic oral care compositions containing amino acids” (COLGATE-PALMOLIVE COMPANY, priority 2013, dated 2018)

What was measured:
Assay type in all cases: cell-based
[1] = system: Tannerella forsythia; assay: Metabolic activity, Biolog phenotype microarray; details: control without dipeptide = 1
Procedure, shortened: (§1)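 Each species, grown 48 h anaerobically on blood agar, was suspended in IF-0 fluid with tetrazolium Redox Dye D, succinate and ferric citrate, then dispensed onto dipeptide-preloaded plates. Incubated anaerobically at 37° C; OD 492 nm read at 24 and 48 h versus no-dipeptide controls; mean of three biological replicates.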

[2] = system: Aggregatibacter actinomycetemcomitans; assay: Metabolic activity, Biolog phenotype microarray; details: control without dipeptide = 1
Procedure, shortened: as §1

[3] = system: Streptococcus mutans; assay: Metabolic activity, Biolog phenotype microarray; details: control without dipeptide = 1
Procedure, shortened: as §1

[4] = system: Actinomyces viscosus; assay: Metabolic activity, Biolog phenotype microarray; details: control without dipeptide = 1
Procedure, shortened: as §1

[5] = system: Veillonella parvula; assay: Metabolic activity, Biolog phenotype microarray; details: control without dipeptide = 1
Procedure, shortened: as §1

[6] = system: Prevotella intermedia; assay: Metabolic activity, Biolog phenotype microarray; details: control without dipeptide = 1
Procedure, shortened: as §1

[7] = system: Streptococcus salivarius; assay: Metabolic activity, Biolog phenotype microarray; details: control without dipeptide = 1
Procedure, shortened: as §1

[8] = system: Streptococcus mitis; assay: Metabolic activity, Biolog phenotype microarray; details: control without dipeptide = 1
Procedure, shortened: as §1

[9] = system: Actinomyces naeslundii; assay: Metabolic activity, Biolog phenotype microarray; details: control without dipeptide = 1
Procedure, shortened: as §1

[10] = system: Streptococcus sobrinus; assay: Metabolic activity, Biolog phenotype microarray; details: control without dipeptide = 1
Procedure, shortened: as §1

[11] = system: beneficial oral bacteria and pathogenic oral bacteria; assay: Extent of growth, whole panel: prebiotic effect; details: threshold value of 1.25
From the text: Substrates that were able to increase the growth (or maximal growth density or extent of growth) of at least one of the above beneficial bacteria while not or only minimally increasing the growth (or maximal growth density) of the pathogenic bacteria are considered to be prebiotic compounds.
The extent of growth of the tested bacteria in response to selected compounds (Met-Pro, Phe-Glu) was investigated by setting up growth curves in a nutritionally rich medium (brain heart infusion broth (BHI), Oxoid), over 48 hours. Late exponential growth phase liquid cultures were prepared by transferring the respective bacterium from blood agar plates to BHI and overnight incubation at 37° C. in an anaerobic atmosphere for A. viscosus, V. parvula, F. nucleatum, P. gingivalis, P. intermedia, T. forsythia, A. naeslundii, and C. sputigena, and in a 5% CO2 environment for S. salivarius, S. sanguinis, S. mitis, A. actinomycetemcomitans, S. mutans, S. sobrinus and S. gordonii. Overnight cultures were transferred to BHI and adjusted to a concentration of 1×10^7 CFU/ml (colony forming units per ml) by measuring the optical density at 600 nm (OD600) (BioRad SmartSpec 3000). For each strain, 200 μl of the bacterial suspension was added to a 96-well plate containing 20 μl of the respective di-peptides. Final concentrations of the di-peptides were set to 5, 10, 20 and 25 μmol/ml. […] Plates were incubated as previously described.
For each combination of bacterium/dipeptide, and for each of their respective controls (i.e. the particular bacterium in the nutritionally rich medium with no dipeptide), the optical density was measured at 630 nm (OD630) at 0 h, 24 h and 48 h (Thermo Scientific Multiskan Ascent). Additionally, the OD630 for combinations of bacterium/dipeptide grown in a 5% CO2 environment were also measured every hour between 0 h and 9 h.
The experiment was carried out on three different days (thus providing 3 biological replicas) and on each day the experiment was carried out in quadruple (thus providing 4 technical replicas) for each combination of bacterium with dipeptide and for each control. For each day and for each combination, the average (mean) of the values obtained (as detailed above) for the four technical replicas was calculated to provide a single value for each combination on each day. The values shown in Tables 5 to 6, below, are the average (mean) of the three single values obtained for each combination of bacterium with dipeptide.
This value was selected in order to exclude low-stimulating metabolites and avoid false positive results.

Phe-Glu was tested. Which “metabolic activity: OD 492 nm divided by OD of control” value (shortened to “metabolic activity: OD 492 nm divided”) ([1]; 24 hrs) did it give?
Its value is 1.0452.

And the “metabolic activity: OD 492 nm divided” value ([1]; 48 hrs)?
Its value is 1.0015.

What about the “metabolic activity: OD 492 nm divided” value ([2]; 24 hrs) of the same substance?
The value was 0.9204.

And the “metabolic activity: OD 492 nm divided” value ([2]; 48 hrs)?
Its value is 0.9345.

And the “metabolic activity: OD 492 nm divided” value ([3]; 24 hrs)?
The value was 1.0352.

And the “metabolic activity: OD 492 nm divided” value ([3]; 48 hrs)?
Its value is 0.9816.

What about the “metabolic activity: OD 492 nm divided” value ([4]; 24 hrs) of the same substance?
The value was 1.3824.

And the “metabolic activity: OD 492 nm divided” value ([4]; 48 hrs)?
The value was 2.1224.

What about the “metabolic activity: OD 492 nm divided” value ([5]; 24 hrs) of the same substance?
The value was 0.8043.

What about the “metabolic activity: OD 492 nm divided” value ([5]; 48 hrs) of the same substance?
The value was 0.7552.

What about the “metabolic activity: OD 492 nm divided” value ([6]; 24 hrs) of the same substance?
The value was 1.0519.

What about the “metabolic activity: OD 492 nm divided” value ([6]; 48 hrs) of the same substance?
Its value is 0.9562.

What about the “metabolic activity: OD 492 nm divided” value ([7]; 24 hrs) of the same substance?
The value was 1.0411.

What about the “metabolic activity: OD 492 nm divided” value ([7]; 48 hrs) of the same substance?
The value was 0.9959.

What about the “metabolic activity: OD 492 nm divided” value ([8]; 24 hrs) of the same substance?
Its value is 1.0644.

And the “metabolic activity: OD 492 nm divided” value ([8]; 48 hrs)?
Its value is 1.1176.

And the “metabolic activity: OD 492 nm divided” value ([9]; 24 hrs)?
Its value is 0.9642.

What about the “metabolic activity: OD 492 nm divided” value ([9]; 48 hrs) of the same substance?
Its value is 0.9466.

What about the “metabolic activity: OD 492 nm divided” value ([10]; 24 hrs) of the same substance?
The value was 1.0354.

And the “metabolic activity: OD 492 nm divided” value ([10]; 48 hrs)?
The value was 1.0539.

And the “prebiotic effects (extent of growth)” value ([11]; 5 μmol/ml)?
The value was “exhibited prebiotic effects”.

What about the “prebiotic effects (extent of growth)” value ([11]; 10 μmol/ml) of the same substance?
Its value is “exhibited prebiotic effects”.

How did the “metabolic activity: OD 492 nm divided” value ([1]; 24 hrs) turn out when Met-Pro was run?
Its value is 0.9040.

What about the “metabolic activity: OD 492 nm divided” value ([1]; 48 hrs) of the same substance?
The value was 0.9403.

And the “metabolic activity: OD 492 nm divided” value ([2]; 24 hrs)?
Its value is 0.9162.

And the “metabolic activity: OD 492 nm divided” value ([2]; 48 hrs)?
Its value is 0.8616.

And the “metabolic activity: OD 492 nm divided” value ([3]; 24 hrs)?
Its value is 0.9563.

And the “metabolic activity: OD 492 nm divided” value ([3]; 48 hrs)?
Its value is 0.9242.

And the “metabolic activity: OD 492 nm divided” value ([4]; 24 hrs)?
The value was 1.5865.

And the “metabolic activity: OD 492 nm divided” value ([4]; 48 hrs)?
The value was 2.0588.

What about the “metabolic activity: OD 492 nm divided” value ([5]; 24 hrs) of the same substance?
Its value is 0.7714.

And the “metabolic activity: OD 492 nm divided” value ([5]; 48 hrs)?
The value was 0.6345.

And the “metabolic activity: OD 492 nm divided” value ([6]; 24 hrs)?
The value was 0.9704.

And the “metabolic activity: OD 492 nm divided” value ([6]; 48 hrs)?
Its value is 0.9393.

And the “metabolic activity: OD 492 nm divided” value ([7]; 24 hrs)?
Its value is 0.9990.

And the “metabolic activity: OD 492 nm divided” value ([7]; 48 hrs)?
The value was 0.9500.

And the “metabolic activity: OD 492 nm divided” value ([8]; 24 hrs)?
The value was 1.0020.

And the “metabolic activity: OD 492 nm divided” value ([8]; 48 hrs)?
Its value is 0.9214.

And the “metabolic activity: OD 492 nm divided” value ([9]; 24 hrs)?
The value was 1.0381.

What about the “metabolic activity: OD 492 nm divided” value ([9]; 48 hrs) of the same substance?
The value was 1.0427.

And the “metabolic activity: OD 492 nm divided” value ([10]; 24 hrs)?
The value was 1.0338.

What about the “metabolic activity: OD 492 nm divided” value ([10]; 48 hrs) of the same substance?
The value was 1.0538.

And the “prebiotic effects (extent of growth)” value ([11]; 10 μmol/ml)?
Its value is “exhibited prebiotic effects”.

And the “prebiotic effects (extent of growth)” value ([11]; 20 μmol/ml)?
Its value is “exhibited prebiotic effects”.

What about the “prebiotic effects (extent of growth)” value ([11]; 25 μmol/ml) of the same substance?
Its value is “exhibited prebiotic effects”.
